Columns and labels:
[1] = DRUGMATRIX: Serotonin (5-Hydroxytryptamine) 5-HT3 radioligand binding (ligand: [3H] GR-65630); format: cell membranes, Membrane; conditions: hek293; Not Active = under 50% inhibition at 10 µM
D(3) dopamine receptor = D(3) dopamine receptor (Homo sapiens, UniProt P35462); experiment: DRUGMATRIX: Dopamine D3 radioligand binding (ligand: [3H] Spiperone); format: cell membranes, CHO, Membrane; conditions: cho
[2] = biological target: T1, Alpha-1A adrenergic receptor (Rattus norvegicus, UniProt P43140); experiment: DRUGMATRIX: Alpha-1A adrenergic receptor radioligand binding (ligand: prazosin); format: cell membranes, Wistar, Submaxillary gland, Membrane; conditions: Not Active = under 50% inhibition at 10 µM
T1 sequence (P43140 whole entry): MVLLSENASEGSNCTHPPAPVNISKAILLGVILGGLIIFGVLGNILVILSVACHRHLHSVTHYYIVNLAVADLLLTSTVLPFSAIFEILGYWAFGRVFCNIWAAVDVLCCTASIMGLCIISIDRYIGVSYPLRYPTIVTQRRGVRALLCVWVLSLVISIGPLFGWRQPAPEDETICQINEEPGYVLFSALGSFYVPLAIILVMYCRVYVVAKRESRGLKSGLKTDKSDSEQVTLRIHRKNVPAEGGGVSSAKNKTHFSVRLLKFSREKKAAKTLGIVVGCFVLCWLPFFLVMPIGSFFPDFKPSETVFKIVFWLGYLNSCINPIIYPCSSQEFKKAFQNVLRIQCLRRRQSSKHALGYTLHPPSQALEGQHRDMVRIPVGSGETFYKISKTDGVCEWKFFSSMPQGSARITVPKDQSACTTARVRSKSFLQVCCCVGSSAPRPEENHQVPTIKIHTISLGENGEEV

[3] = biological target: 5-hydroxytryptamine receptor 2B (Homo sapiens, UniProt P41595); format: cell membranes, CHO-K1, Membrane; further: in other assays of this panel Not Active means under 50% inhibition at 10 µM
Sequence of 5-hydroxytryptamine receptor 2B (P41595 whole entry): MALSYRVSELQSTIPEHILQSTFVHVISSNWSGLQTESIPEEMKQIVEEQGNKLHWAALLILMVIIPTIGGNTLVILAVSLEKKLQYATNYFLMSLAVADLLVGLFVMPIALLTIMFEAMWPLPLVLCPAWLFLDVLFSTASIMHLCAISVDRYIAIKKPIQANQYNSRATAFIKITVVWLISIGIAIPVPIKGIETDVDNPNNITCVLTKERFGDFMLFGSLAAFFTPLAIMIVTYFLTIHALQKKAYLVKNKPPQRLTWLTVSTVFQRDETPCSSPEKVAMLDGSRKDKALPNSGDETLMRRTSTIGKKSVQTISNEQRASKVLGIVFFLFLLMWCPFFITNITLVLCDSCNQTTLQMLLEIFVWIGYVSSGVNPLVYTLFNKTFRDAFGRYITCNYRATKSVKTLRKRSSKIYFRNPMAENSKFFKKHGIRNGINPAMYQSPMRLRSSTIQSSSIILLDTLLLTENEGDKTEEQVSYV

Thromboxane-A synthase = biological target: T2, Thromboxane-A synthase (Homo sapiens, UniProt P24557); experiment: biochemical; format: tissue-based, Platelet; conditions: platelet;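 further: enzyme inhibition assay with PGH2 supplied as substrate; in other assays of this panel Not Active means under 50% inhibition at 10 µM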
T2 sequence (P24557 whole entry): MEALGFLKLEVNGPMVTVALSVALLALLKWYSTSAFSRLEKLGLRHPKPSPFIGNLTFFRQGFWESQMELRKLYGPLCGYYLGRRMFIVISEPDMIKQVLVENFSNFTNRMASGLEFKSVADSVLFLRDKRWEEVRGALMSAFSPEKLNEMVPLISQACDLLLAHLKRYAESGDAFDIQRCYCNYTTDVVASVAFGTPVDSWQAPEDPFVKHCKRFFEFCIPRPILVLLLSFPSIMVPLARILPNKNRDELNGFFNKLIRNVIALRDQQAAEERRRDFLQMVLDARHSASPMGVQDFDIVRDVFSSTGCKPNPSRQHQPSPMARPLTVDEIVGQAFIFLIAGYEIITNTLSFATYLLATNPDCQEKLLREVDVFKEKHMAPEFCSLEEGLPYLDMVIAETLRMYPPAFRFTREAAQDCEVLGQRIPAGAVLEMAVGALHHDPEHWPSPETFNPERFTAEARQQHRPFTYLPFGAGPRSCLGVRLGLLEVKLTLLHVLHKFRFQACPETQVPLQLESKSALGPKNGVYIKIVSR

[4] = biological target: C-C chemokine receptor type 2 (Homo sapiens, UniProt P41597); format: cell membranes, CHO-K1, Membrane; conditions: cho-k1; further: in other assays of this panel Not Active means under 50% inhibition at 10 µM
Sequence of C-C chemokine receptor type 2 (P41597 whole entry): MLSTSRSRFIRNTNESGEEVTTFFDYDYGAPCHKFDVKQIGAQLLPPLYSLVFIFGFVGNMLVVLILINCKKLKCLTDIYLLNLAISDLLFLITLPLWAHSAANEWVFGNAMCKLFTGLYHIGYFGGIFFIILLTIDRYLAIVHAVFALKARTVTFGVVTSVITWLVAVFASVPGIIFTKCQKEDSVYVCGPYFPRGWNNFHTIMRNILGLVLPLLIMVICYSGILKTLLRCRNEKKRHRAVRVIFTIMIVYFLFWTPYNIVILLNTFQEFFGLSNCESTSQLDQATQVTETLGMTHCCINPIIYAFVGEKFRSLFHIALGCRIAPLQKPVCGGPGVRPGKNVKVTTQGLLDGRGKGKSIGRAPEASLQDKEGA

[5] = biological target: T3, 5-hydroxytryptamine receptor 1A (Rattus norvegicus, UniProt P19327); format: cell membranes, CHO-K1, Membrane; conditions: cho-k1; further: in other assays of this panel Not Active means under 50% inhibition at 10 µM
T3 sequence (P19327 whole entry): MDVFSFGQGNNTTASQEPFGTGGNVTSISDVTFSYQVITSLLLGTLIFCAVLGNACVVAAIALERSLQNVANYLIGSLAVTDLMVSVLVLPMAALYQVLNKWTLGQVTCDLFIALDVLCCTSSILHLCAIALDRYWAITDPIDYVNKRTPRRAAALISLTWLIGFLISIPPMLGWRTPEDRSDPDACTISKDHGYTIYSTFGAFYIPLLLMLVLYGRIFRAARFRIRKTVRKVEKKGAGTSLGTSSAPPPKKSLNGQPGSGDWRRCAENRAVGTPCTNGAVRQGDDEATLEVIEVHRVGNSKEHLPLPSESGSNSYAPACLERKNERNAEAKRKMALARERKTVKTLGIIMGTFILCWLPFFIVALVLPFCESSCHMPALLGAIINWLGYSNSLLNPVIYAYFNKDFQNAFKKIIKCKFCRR

[6] = biological target: Prostaglandin G/H synthase 1 (Homo sapiens, UniProt P23219); experiment: biochemical; format: tissue-based, Platelet; conditions: platelet
Sequence of Prostaglandin G/H synthase 1 (P23219 whole entry): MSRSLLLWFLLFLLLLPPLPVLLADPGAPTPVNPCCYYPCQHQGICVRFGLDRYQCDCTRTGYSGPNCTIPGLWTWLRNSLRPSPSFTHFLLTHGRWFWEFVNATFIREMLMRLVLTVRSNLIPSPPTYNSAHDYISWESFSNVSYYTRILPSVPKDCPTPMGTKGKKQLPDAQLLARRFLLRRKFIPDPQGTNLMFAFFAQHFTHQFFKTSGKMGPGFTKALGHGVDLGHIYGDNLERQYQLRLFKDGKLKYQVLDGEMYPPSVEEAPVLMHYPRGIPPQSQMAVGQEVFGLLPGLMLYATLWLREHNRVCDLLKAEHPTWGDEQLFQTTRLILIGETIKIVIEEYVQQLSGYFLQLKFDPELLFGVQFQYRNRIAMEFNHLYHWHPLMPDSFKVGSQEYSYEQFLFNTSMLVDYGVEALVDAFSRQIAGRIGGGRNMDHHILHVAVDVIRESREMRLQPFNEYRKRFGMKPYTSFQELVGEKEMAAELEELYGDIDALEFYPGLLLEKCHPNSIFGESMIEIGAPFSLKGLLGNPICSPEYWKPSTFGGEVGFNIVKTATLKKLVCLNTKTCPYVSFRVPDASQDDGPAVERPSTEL

[7] = biological target: Beta-1 adrenergic receptor (Homo sapiens, UniProt P08588); experiment: DRUGMATRIX: Adrenergic beta1 radioligand binding (ligand: [125I] Cyanopindolol); format: cell membranes, CHO-K1, Membrane; conditions: cho-k1; Not Active = under 50% inhibition at 10 µM
Sequence of Beta-1 adrenergic receptor (P08588 whole entry): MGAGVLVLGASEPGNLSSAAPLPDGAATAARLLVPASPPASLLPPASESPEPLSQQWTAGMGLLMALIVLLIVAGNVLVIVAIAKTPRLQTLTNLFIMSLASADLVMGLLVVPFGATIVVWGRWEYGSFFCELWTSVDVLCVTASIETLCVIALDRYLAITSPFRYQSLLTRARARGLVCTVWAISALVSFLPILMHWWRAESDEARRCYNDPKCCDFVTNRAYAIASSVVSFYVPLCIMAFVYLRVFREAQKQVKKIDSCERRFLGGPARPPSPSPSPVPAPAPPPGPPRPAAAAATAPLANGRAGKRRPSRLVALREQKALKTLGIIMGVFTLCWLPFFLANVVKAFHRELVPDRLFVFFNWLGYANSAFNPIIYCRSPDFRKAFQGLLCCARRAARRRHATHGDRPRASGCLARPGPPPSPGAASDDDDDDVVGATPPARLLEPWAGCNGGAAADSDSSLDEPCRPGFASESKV

[8] = biological target: T4, Alpha-1D adrenergic receptor (Homo sapiens, UniProt P25100); format: cell membranes, HEK293, Membrane; conditions: hek293; further: in other assays of this panel Not Active means under 50% inhibition at 10 µM
T4 sequence (P25100 whole entry): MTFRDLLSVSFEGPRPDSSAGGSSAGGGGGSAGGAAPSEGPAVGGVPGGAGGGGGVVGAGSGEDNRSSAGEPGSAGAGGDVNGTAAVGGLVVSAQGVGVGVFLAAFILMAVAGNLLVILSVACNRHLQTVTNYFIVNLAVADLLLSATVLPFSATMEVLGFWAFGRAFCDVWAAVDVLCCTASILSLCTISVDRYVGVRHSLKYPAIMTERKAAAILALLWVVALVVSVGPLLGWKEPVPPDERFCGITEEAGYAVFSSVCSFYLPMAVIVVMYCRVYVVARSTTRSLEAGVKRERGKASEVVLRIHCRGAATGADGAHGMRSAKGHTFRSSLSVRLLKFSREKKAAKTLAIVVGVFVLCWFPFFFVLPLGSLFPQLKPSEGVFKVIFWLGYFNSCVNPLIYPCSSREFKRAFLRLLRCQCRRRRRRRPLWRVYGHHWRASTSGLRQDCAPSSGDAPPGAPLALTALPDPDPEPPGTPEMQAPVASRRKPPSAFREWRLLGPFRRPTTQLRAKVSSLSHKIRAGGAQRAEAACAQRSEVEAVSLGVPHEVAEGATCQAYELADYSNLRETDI

Melanocortin receptor 3 = Melanocortin receptor 3 (Homo sapiens, UniProt P41968); format: cell membranes, Membrane; conditions: hek293; further: in other assays of this panel Not Active means under 50% inhibition at 10 µM
Sequence of Melanocortin receptor 3 (P41968 whole entry): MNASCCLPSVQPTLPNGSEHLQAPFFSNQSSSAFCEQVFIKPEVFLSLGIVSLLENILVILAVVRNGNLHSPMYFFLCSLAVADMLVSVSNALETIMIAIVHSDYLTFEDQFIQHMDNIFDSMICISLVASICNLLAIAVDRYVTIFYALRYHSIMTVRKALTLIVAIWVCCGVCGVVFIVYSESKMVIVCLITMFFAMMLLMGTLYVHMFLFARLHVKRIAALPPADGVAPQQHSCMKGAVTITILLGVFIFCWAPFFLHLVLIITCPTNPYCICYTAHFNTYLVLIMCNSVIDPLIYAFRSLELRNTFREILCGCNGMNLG

[9] = biological target: Beta-3 adrenergic receptor (Homo sapiens, UniProt P13945); experiment: DRUGMATRIX: Adrenergic beta3 radioligand binding (ligand: [125I] Cyanopindolol); format: cell membranes, HEK293, Membrane; conditions: hek293; Not Active = under 50% inhibition at 10 µM
Sequence of Beta-3 adrenergic receptor (P13945 whole entry): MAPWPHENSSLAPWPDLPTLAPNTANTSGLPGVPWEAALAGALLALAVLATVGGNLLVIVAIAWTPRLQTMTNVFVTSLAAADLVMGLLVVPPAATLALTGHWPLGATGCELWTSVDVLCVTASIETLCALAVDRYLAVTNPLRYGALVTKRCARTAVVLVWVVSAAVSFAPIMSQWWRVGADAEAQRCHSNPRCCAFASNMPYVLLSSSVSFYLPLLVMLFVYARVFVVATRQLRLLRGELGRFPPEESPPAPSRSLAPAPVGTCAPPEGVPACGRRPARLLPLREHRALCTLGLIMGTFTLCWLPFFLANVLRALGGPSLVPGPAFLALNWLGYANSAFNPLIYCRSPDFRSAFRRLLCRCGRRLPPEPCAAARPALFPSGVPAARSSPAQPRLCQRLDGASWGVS

Cytochrome P450 2E1 = Cytochrome P450 2E1 (Homo sapiens, UniProt P05181); conditions: bti-tn-5b1-4; further: in other assays of this panel Not Active means under 50% inhibition at 10 µM
Sequence of Cytochrome P450 2E1 (P05181 whole entry): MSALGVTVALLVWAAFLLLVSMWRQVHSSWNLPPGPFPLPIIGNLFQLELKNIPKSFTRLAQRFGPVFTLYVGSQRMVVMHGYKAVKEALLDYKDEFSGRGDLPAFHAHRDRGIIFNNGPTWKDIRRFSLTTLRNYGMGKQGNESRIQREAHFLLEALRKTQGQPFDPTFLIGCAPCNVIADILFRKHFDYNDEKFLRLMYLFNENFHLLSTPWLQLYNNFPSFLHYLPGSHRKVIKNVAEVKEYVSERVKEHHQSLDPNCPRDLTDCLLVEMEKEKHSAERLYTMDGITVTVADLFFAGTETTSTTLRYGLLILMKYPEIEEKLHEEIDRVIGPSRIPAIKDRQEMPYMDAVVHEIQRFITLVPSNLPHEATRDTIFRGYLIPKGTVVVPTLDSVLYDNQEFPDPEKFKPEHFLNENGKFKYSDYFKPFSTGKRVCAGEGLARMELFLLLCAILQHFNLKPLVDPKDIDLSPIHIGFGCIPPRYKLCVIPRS

Sequence of D(3) dopamine receptor (P35462 whole entry): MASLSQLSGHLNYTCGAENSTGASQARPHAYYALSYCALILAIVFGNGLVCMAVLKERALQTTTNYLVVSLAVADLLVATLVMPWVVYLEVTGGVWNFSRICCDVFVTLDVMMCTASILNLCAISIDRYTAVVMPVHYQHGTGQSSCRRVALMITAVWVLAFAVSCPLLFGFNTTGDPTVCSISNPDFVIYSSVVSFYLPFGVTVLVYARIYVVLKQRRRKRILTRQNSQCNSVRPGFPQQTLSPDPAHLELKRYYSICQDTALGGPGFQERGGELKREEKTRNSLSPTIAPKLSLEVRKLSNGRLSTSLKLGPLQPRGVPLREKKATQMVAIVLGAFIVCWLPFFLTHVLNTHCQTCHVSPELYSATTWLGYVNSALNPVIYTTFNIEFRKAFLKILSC

Structure (SMILES)	IC50 [1]	Ki [1]	IC50 (D(3) dopamine receptor)	IC50 [2]	IC50 ([3]; cho-k1)	IC50 (Thromboxane-A synthase)	IC50 [4]	IC50 [5]	IC50 [6]	IC50 [7]	IC50 [8]	IC50 (Melanocortin receptor 3)	IC50 [9]	IC50 (Cytochrome P450 2E1)	Ki (Cytochrome P450 2E1)	IC50 ([3]; read-out: IC50)	Ki ([3]; read-out: Ki)
CC(C)(Oc1ccc(CCNC(=O)c2ccc(Cl)cc2)cc1)C(=O)O [BEZAFIBRATE]	Not Active	Not Active	Not Active	Not Active	Not Active	Not Active	Not Active	Not Active	Not Active	Not Active	Not Active	Not Active	Not Active	Not Active	Not Active		
CCCC[C@@H](CC)COC(=O)c1ccccc1C(=O)OC[C@@H](CC)CCCC [BIS(2-ETHYLHEXYL)PHTHALATE]	Not Active	Not Active	Not Active	Not Active	Not Active	Not Active	Not Active	Not Active	Not Active	Not Active	Not Active	Not Active	Not Active	Not Active	Not Active		
Brc1ccccc1 [BROMOBENZENE]	Not Active	Not Active	Not Active	Not Active	Not Active	Not Active	Not Active	Not Active	Not Active	Not Active	Not Active	Not Active	Not Active	Not Active	Not Active		
CCCCOC(=O)c1ccc(N)cc1 [BUTAMBEN]	Not Active	Not Active	Not Active	Not Active	Not Active	Not Active	Not Active	Not Active	Not Active	Not Active	Not Active	Not Active	Not Active	Not Active	Not Active		
CC[C@@]1(O)C(=O)OCc2c1cc1n(c2=O)Cc2cc3ccccc3nc2-1 [CAMPTOTHECIN]	Not Active	Not Active	Not Active	Not Active		Not Active	Not Active	Not Active	Not Active	Not Active	Not Active	Not Active	Not Active	Not Active	Not Active	970 nM	617 nM
COCc1c(C(C)C)nc(C(C)C)c(/C=C/[C@@H](O)C[C@@H](O)CC(=O)O)c1-c1ccc(F)cc1 [CERIVASTATIN]	Not Active	Not Active	Not Active	Not Active	Not Active	Not Active	Not Active	Not Active	Not Active	Not Active	Not Active	Not Active	Not Active	Not Active	Not Active		
CC(=O)O[C@]1(C(C)=O)CC[C@H]2[C@@H]3C=C(Cl)C4=CC(=O)CC[C@]4(C)[C@H]3CC[C@@]21C [CHLORMADINONE ACETATE]	Not Active	Not Active	Not Active	Not Active	Not Active	Not Active	Not Active	Not Active	Not Active	Not Active	Not Active	Not Active	Not Active	Not Active	Not Active		
O=C1CCc2cc(OCCCCc3nnnn3C3CCCCC3)ccc2N1 [CILOSTAZOL]	Not Active	Not Active	Not Active	Not Active	Not Active	Not Active	Not Active	Not Active	Not Active	Not Active	Not Active	Not Active	Not Active	Not Active	Not Active		
O=C(O)c1cn(C2CC2)c2cc(N3CCNCC3)c(F)cc2c1=O [CIPROFLOXACIN]	Not Active	Not Active	Not Active	Not Active	Not Active	Not Active	Not Active	Not Active	Not Active	Not Active	Not Active	Not Active	Not Active	Not Active	Not Active		
